Tested on: N2O emissions from soils
Experiment: Greenhouse experiment: detection of nitrous oxide (N2O) losses from pots
Settings: urea
Source text: Detection of Nitrous Oxide Losses:
On application day (DATO), each pot (with/without plants or algae) was set onto a plant saucer designed with an inner compartment for the pot and an outer ring that is filled with water. At time 0, water holding capacity of the soil was set to 60-70% prior to application with/without fertilizer and a.i. Subsequently, a gas sampling chamber was placed over the plant saucer such that the rim fit into the ring filled with water to create a gas-tight chamber and 25 cc air from the chamber were drawn into a syringe and immediately emptied in to a Vacutainer (Labco, 12 ml volume). This equals the Time 0 measurement for each pot. The same procedure was performed with all pots in the experiment. After two hour incubation time, again 25 cc air samples were taken from the gas chambers and emptied into Vacutainers as described above. Plants were then returned to their positions in the climate chamber. The procedure was repeated at precisely the same time of day for up to 19 days.
Samples were analyzed in a Shimadzu 2014 GC equipped with an ECD system.

[1] = DAT 1, NI 0.20, UI 0.01 where present
[2] = DAT 1, NI 0.35, UI 0.01 where present
[3] = DAT 1, NI 0.50, UI 0.01 where present
[4] = DAT 2, NI 0.20, UI 0.01 where present
[5] = DAT 2, NI 0.35, UI 0.01 where present
[6] = DAT 2, NI 0.50, UI 0.01 where present
[7] = DAT 3, NI 0.20, UI 0.01 where present
[8] = DAT 3, NI 0.35, UI 0.01 where present
[9] = DAT 3, NI 0.50, UI 0.01 where present
[10] = DAT 4, NI 0.20, UI 0.01 where present
[11] = DAT 4, NI 0.35, UI 0.01 where present
[12] = DAT 4, NI 0.50, UI 0.01 where present
[13] = DAT 5, NI 0.20, UI 0.01 where present
[14] = DAT 5, NI 0.35, UI 0.01 where present
[15] = DAT 5, NI 0.50, UI 0.01 where present
[16] = DAT 6, NI 0.20, UI 0.01 where present
[17] = DAT 6, NI 0.35, UI 0.01 where present
[18] = DAT 6, NI 0.50, UI 0.01 where present
[19] = DAT 7, NI 0.20, UI 0.01 where present
[20] = DAT 7, NI 0.35, UI 0.01 where present
[21] = DAT 7, NI 0.50, UI 0.01 where present
[22] = DAT 8, NI 0.20, UI 0.01 where present
[23] = DAT 8, NI 0.35, UI 0.01 where present
[24] = DAT 8, NI 0.50, UI 0.01 where present
[25] = DAT 10, NI 0.20, UI 0.01 where present
[26] = DAT 10, NI 0.35, UI 0.01 where present
[27] = DAT 10, NI 0.50, UI 0.01 where present
[28] = DAT 12, NI 0.20, UI 0.01 where present
[29] = DAT 12, NI 0.35, UI 0.01 where present
[30] = DAT 12, NI 0.50, UI 0.01 where present
[31] = DAT 16, NI 0.20, UI 0.01 where present
[32] = DAT 16, NI 0.35, UI 0.01 where present
[33] = DAT 16, NI 0.50, UI 0.01 where present
[34] = DAT 19, NI 0.20, UI 0.01 where present
[35] = DAT 19, NI 0.35, UI 0.01 where present
[36] = DAT 19, NI 0.50, UI 0.01 where present

Compound: Cc1cn(C(CC(=O)[O-])C(=O)[O-])nc1C.[K+].[K+] (stereo not shown) [DMPSA-K2]
- Nitrous oxide (N2O) emissions, cumulated values [1]: 8.97 μg N2O—N/m2*h
- Nitrous oxide (N2O) emissions, cumulated values [2]: 7.74 μg N2O—N/m2*h
- Nitrous oxide (N2O) emissions, cumulated values [3]: 7.62 μg N2O—N/m2*h
- Nitrous oxide (N2O) emissions, cumulated values [4]: 19.30 μg N2O—N/m2*h
- Nitrous oxide (N2O) emissions, cumulated values [5]: 18.94 μg N2O—N/m2*h
- Nitrous oxide (N2O) emissions, cumulated values [6]: 20.18 μg N2O—N/m2*h
- Nitrous oxide (N2O) emissions, cumulated values [7]: 29.75 μg N2O—N/m2*h
- Nitrous oxide (N2O) emissions, cumulated values [8]: 29.26 μg N2O—N/m2*h
- Nitrous oxide (N2O) emissions, cumulated values [9]: 30.31 μg N2O—N/m2*h
- Nitrous oxide (N2O) emissions, cumulated values [10]: 37.16 μg N2O—N/m2*h
- Nitrous oxide (N2O) emissions, cumulated values [11]: 37.09 μg N2O—N/m2*h
- Nitrous oxide (N2O) emissions, cumulated values [12]: 37.69 μg N2O—N/m2*h
- Nitrous oxide (N2O) emissions, cumulated values [13]: 45.99 μg N2O—N/m2*h
- Nitrous oxide (N2O) emissions, cumulated values [14]: 46.55 μg N2O—N/m2*h
- Nitrous oxide (N2O) emissions, cumulated values [15]: 46.97 μg N2O—N/m2*h
- Nitrous oxide (N2O) emissions, cumulated values [16]: 52.71 μg N2O—N/m2*h
- Nitrous oxide (N2O) emissions, cumulated values [17]: 52.67 μg N2O—N/m2*h
- Nitrous oxide (N2O) emissions, cumulated values [18]: 52.44 μg N2O—N/m2*h
- Nitrous oxide (N2O) emissions, cumulated values [19]: 60.65 μg N2O—N/m2*h
- Nitrous oxide (N2O) emissions, cumulated values [20]: 60.12 μg N2O—N/m2*h
- Nitrous oxide (N2O) emissions, cumulated values [21]: 62.57 μg N2O—N/m2*h
- Nitrous oxide (N2O) emissions, cumulated values [22]: 68.52 μg N2O—N/m2*h
- Nitrous oxide (N2O) emissions, cumulated values [23]: 70.52 μg N2O—N/m2*h
- Nitrous oxide (N2O) emissions, cumulated values [24]: 72.03 μg N2O—N/m2*h
- Nitrous oxide (N2O) emissions, cumulated values [25]: 77.59 μg N2O—N/m2*h
- Nitrous oxide (N2O) emissions, cumulated values [26]: 77.77 μg N2O—N/m2*h
- Nitrous oxide (N2O) emissions, cumulated values [27]: 79.00 μg N2O—N/m2*h
- Nitrous oxide (N2O) emissions, cumulated values [28]: 85.15 μg N2O—N/m2*h
- Nitrous oxide (N2O) emissions, cumulated values [29]: 81.35 μg N2O—N/m2*h
- Nitrous oxide (N2O) emissions, cumulated values [30]: 82.43 μg N2O—N/m2*h
- Nitrous oxide (N2O) emissions, cumulated values [31]: 87.97 μg N2O—N/m2*h
- Nitrous oxide (N2O) emissions, cumulated values [32]: 84.12 μg N2O—N/m2*h
- Nitrous oxide (N2O) emissions, cumulated values [33]: 84.05 μg N2O—N/m2*h
- Nitrous oxide (N2O) emissions, cumulated values [34]: 88.83 μg N2O—N/m2*h
- Nitrous oxide (N2O) emissions, cumulated values [35]: 84.94 μg N2O—N/m2*h
- Nitrous oxide (N2O) emissions, cumulated values [36]: 84.28 μg N2O—N/m2*h
- Nitrous oxide (N2O) emissions, % appl. N (NI 0.20, UI 0.01 where present): 0.381 % appl. N
- Nitrous oxide (N2O) emissions, % appl. N (NI 0.35, UI 0.01 where present): 0.364 % appl. N
- Nitrous oxide (N2O) emissions, % appl. N (NI 0.50, UI 0.01 where present): 0.361 % appl. N

Compound: Cc1cn(C(CC(=O)O)C(=O)O)nc1C.N.N (stereo not shown) [DMPSA-di-NH4]
- Nitrous oxide (N2O) emissions, cumulated values [1]: 5.71 μg N2O—N/m2*h
- Nitrous oxide (N2O) emissions, cumulated values [2]: 6.74 μg N2O—N/m2*h
- Nitrous oxide (N2O) emissions, cumulated values [3]: 7.89 μg N2O—N/m2*h
- Nitrous oxide (N2O) emissions, cumulated values [4]: 17.84 μg N2O—N/m2*h
- Nitrous oxide (N2O) emissions, cumulated values [5]: 22.08 μg N2O—N/m2*h
- Nitrous oxide (N2O) emissions, cumulated values [6]: 16.36 μg N2O—N/m2*h
- Nitrous oxide (N2O) emissions, cumulated values [7]: 28.36 μg N2O—N/m2*h
- Nitrous oxide (N2O) emissions, cumulated values [8]: 30.26 μg N2O—N/m2*h
- Nitrous oxide (N2O) emissions, cumulated values [9]: 23.64 μg N2O—N/m2*h
- Nitrous oxide (N2O) emissions, cumulated values [10]: 40.61 μg N2O—N/m2*h
- Nitrous oxide (N2O) emissions, cumulated values [11]: 39.25 μg N2O—N/m2*h
- Nitrous oxide (N2O) emissions, cumulated values [12]: 31.59 μg N2O—N/m2*h
- Nitrous oxide (N2O) emissions, cumulated values [13]: 51.02 μg N2O—N/m2*h
- Nitrous oxide (N2O) emissions, cumulated values [14]: 47.97 μg N2O—N/m2*h
- Nitrous oxide (N2O) emissions, cumulated values [15]: 38.95 μg N2O—N/m2*h
- Nitrous oxide (N2O) emissions, cumulated values [16]: 57.34 μg N2O—N/m2*h
- Nitrous oxide (N2O) emissions, cumulated values [17]: 54.68 μg N2O—N/m2*h
- Nitrous oxide (N2O) emissions, cumulated values [18]: 45.83 μg N2O—N/m2*h
- Nitrous oxide (N2O) emissions, cumulated values [19]: 66.12 μg N2O—N/m2*h
- Nitrous oxide (N2O) emissions, cumulated values [20]: 60.89 μg N2O—N/m2*h
- Nitrous oxide (N2O) emissions, cumulated values [21]: 53.03 μg N2O—N/m2*h
- Nitrous oxide (N2O) emissions, cumulated values [22]: 76.79 μg N2O—N/m2*h
- Nitrous oxide (N2O) emissions, cumulated values [23]: 66.75 μg N2O—N/m2*h
- Nitrous oxide (N2O) emissions, cumulated values [24]: 62.02 μg N2O—N/m2*h
- Nitrous oxide (N2O) emissions, cumulated values [25]: 86.54 μg N2O—N/m2*h
- Nitrous oxide (N2O) emissions, cumulated values [26]: 72.23 μg N2O—N/m2*h
- Nitrous oxide (N2O) emissions, cumulated values [27]: 67.48 μg N2O—N/m2*h
- Nitrous oxide (N2O) emissions, cumulated values [28]: 92.81 μg N2O—N/m2*h
- Nitrous oxide (N2O) emissions, cumulated values [29]: 76.32 μg N2O—N/m2*h
- Nitrous oxide (N2O) emissions, cumulated values [30]: 72.35 μg N2O—N/m2*h
- Nitrous oxide (N2O) emissions, cumulated values [31]: 93.10 μg N2O—N/m2*h
- Nitrous oxide (N2O) emissions, cumulated values [32]: 78.21 μg N2O—N/m2*h
- Nitrous oxide (N2O) emissions, cumulated values [33]: 74.66 μg N2O—N/m2*h
- Nitrous oxide (N2O) emissions, cumulated values [34]: 93.49 μg N2O—N/m2*h
- Nitrous oxide (N2O) emissions, cumulated values [35]: 78.47 μg N2O—N/m2*h
- Nitrous oxide (N2O) emissions, cumulated values [36]: 75.03 μg N2O—N/m2*h
- Nitrous oxide (N2O) emissions, % appl. N (NI 0.20, UI 0.01 where present): 0.401 % appl. N
- Nitrous oxide (N2O) emissions, % appl. N (NI 0.35, UI 0.01 where present): 0.337 % appl. N
- Nitrous oxide (N2O) emissions, % appl. N (NI 0.50, UI 0.01 where present): 0.322 % appl. N

Compound: CCCCNP(N)(N)=S [NBPT, N-(n-butyl)thiophosphoric acid triamide, reference compound]
- Nitrous oxide (N2O) emissions, cumulated values (DAT 1, no NI, UI 0.01): 9.77 μg N2O—N/m2*h
- Nitrous oxide (N2O) emissions, cumulated values (DAT 2, no NI, UI 0.01): 27.42 μg N2O—N/m2*h
- Nitrous oxide (N2O) emissions, cumulated values (DAT 3, no NI, UI 0.01): 40.07 μg N2O—N/m2*h
- Nitrous oxide (N2O) emissions, cumulated values (DAT 4, no NI, UI 0.01): 53.70 μg N2O—N/m2*h
- Nitrous oxide (N2O) emissions, cumulated values (DAT 5, no NI, UI 0.01): 68.86 μg N2O—N/m2*h
- Nitrous oxide (N2O) emissions, cumulated values (DAT 6, no NI, UI 0.01): 89.16 μg N2O—N/m2*h
- Nitrous oxide (N2O) emissions, cumulated values (DAT 7, no NI, UI 0.01): 109.04 μg N2O—N/m2*h
- Nitrous oxide (N2O) emissions, cumulated values (DAT 8, no NI, UI 0.01): 127.94 μg N2O—N/m2*h
- Nitrous oxide (N2O) emissions, cumulated values (DAT 10, no NI, UI 0.01): 133.95 μg N2O—N/m2*h
- Nitrous oxide (N2O) emissions, cumulated values (DAT 12, no NI, UI 0.01): 140.07 μg N2O—N/m2*h
- Nitrous oxide (N2O) emissions, cumulated values (DAT 16, no NI, UI 0.01): 143.31 μg N2O—N/m2*h
- Nitrous oxide (N2O) emissions, cumulated values (DAT 19, no NI, UI 0.01): 146.30 μg N2O—N/m2*h
- Nitrous oxide (N2O) emissions, % appl. N (no NI, UI 0.01): 0.628 % appl. N

From patent publication US11659837B2, “Mixtures comprising an urease inhibitor (UI) and a nitrification inhibitor such as 2-(3,4-dimethyl-1H-pyrazol-1-yl)succinic acid (DMPSA) or 3,4-dimethyl pyrazolium glycolate (DMPG)” (BASF SE, priority 2017, dated 2023)
